Values quoted from earlier work in patent publication EP2074993A1, “Venlafaxine-containing film-coated modified-release tablets” (Biovail Laboratories International S.r.l., priority 2007, dated 2009).

Settings: in vivo

Compound	elimination half-life
CN(C)CC(c1ccc(O)cc1)C1(O)CCCCC1 (centres unmarked) [O-desmethylvenlafaxine]	about 8 hours
COc1ccc(C(CN(C)C)C2(O)CCCCC2)cc1 (racemic) [Venlafaxine, (R/S)-1-[2-(dimethylamino)-1-(4-methoxyphenyl)ethyl]cyclohexanol]	about 4 hours
